Source: patent US20260215419A1, “PLANT EXTRACTS WITH HERBICIDAL ACTIVITY” (Agrematch Ltd., priority 2023, published 2026)

What was measured:
Type in all cases: in vivo
[1] = test system: Solanum nigrum; assay: Post-emergence weed panel, visual damage score 0-100; settings: Table 4; 8-day old plants; 0.8 ml per 80 cm^2 pot; scored 13 days after application; average of five pots; synthetic Rhein 1 gram/liter (1000 g/ha)
Method: Damage assessment: Herbicidal activity was assessed and scored by visual inspection of the plants in comparison to plants treated with the formulation alone (with no plant extract) as control. Activity score is in the range of 0 to 100, where 0 represents no herbicidal activity like control plants and 100 represents the maximal herbicidal activity (i.e., total death of the plant). Herbicidal activity of extract sample A-1b was determined by post-emergence application on 8-day old plants (weeds) of the A. palmeri and S. viridis species and 11-day old plants (weeds) of Abutilon theophrasti, Solanum nigrum, Echinochloa colonum, Phalaris canarinesis and Lolium multiflorum that were grown at 16 hours/8 hours day/night cycles at 30° C./25° C., respectively. Leaf stage was typically 4-6 for A. palmeri, 3-4 for S. viridis, 3 for A. theophrasti and S. nigrum, 4 for E. colonum, and 2 for P. canarinesis and L. multiflorum. […] Herbicidal activity was assessed and scored 3 days after application, as described hereinabove. Herbicidal activity was determined by post-emergence application on 7-day old plants (weeds) of the A. palmeri and S. viridis species and 8-day old plants (weeds) of S. nigrum, and C. quinoa that were grown at 16 hours/8 hours day/night cycles at 30° C./25° C., respectively. […] Herbicidal activity was assessed and scored 13 days after application, as described hereinabove.

[2] = test system: Setaria viridis; assay: Post-emergence herbicidal activity, visual damage score 0-100; settings: Table 4; 7-day old plants; 0.8 ml per 80 cm^2 pot; scored 13 days after application; average of five pots; synthetic Rhein 1 gram/liter (1000 g/ha)
Method: (§1) Damage assessment: Herbicidal activity was assessed and scored by visual inspection of the plants in comparison to plants treated with the formulation alone (with no plant extract) as control. Activity score is in the range of 0 to 100, where 0 represents no herbicidal activity like control plants and 100 represents the maximal herbicidal activity (i.e., total death of the plant).
(§2) The herbicidal activity of Rhein-containing extracts was determined by post-emergence application on 8-day old plants (weeds) of the Amaranthus palmeri and Setaria viridis species that were grown at 16 hours/8 hours day/night cycles at 30° C./25° C., respectively. Leaf stage was typically 4-6 for A. palmeri and 3-4 for S. viridis. […]
(§3) Herbicidal activity was assessed and scored 4 days after application by visual inspection of the plants in comparison to plants treated with the control solution alone (with no active ingredient). […]
(§4) Herbicidal activity of extract sample A-1b was determined by post-emergence application on 8-day old plants (weeds) of the A. palmeri and S. viridis species and 11-day old plants (weeds) of Abutilon theophrasti, Solanum nigrum, Echinochloa colonum, Phalaris canarinesis and Lolium multiflorum that were grown at 16 hours/8 hours day/night cycles at 30° C./25° C., respectively. […]
(§5) Herbicidal activity was assessed and scored 13 days after application, as described hereinabove. […]

[3] = test system: Amaranthus palmeri; assay: as above; settings: Table 4; 7-day old plants; 0.8 ml per 80 cm^2 pot; scored 13 days after application; average of five pots; synthetic Rhein 1 gram/liter (1000 g/ha) in 2% MIPA, 2% DASH, 0.25% Genapol
Method: as §1, §2, §3, §4, §5

[4] = test system: Chenopodium quinoa; assay: Post-emergence weed panel, visual damage score 0-100; settings: Table 4; 8-day old plants; 0.8 ml per 80 cm^2 pot; scored 13 days after application; average of five pots; synthetic Rhein 1 gram/liter (1000 g/ha)
Method: Damage assessment: Herbicidal activity was assessed and scored by visual inspection of the plants in comparison to plants treated with the formulation alone (with no plant extract) as control. Activity score is in the range of 0 to 100, where 0 represents no herbicidal activity like control plants and 100 represents the maximal herbicidal activity (i.e., total death of the plant). Herbicidal activity was determined by post-emergence application on 7-day old plants (weeds) of the A. palmeri and S. viridis species and 8-day old plants (weeds) of S. nigrum, and C. quinoa that were grown at 16 hours/8 hours day/night cycles at 30° C./25° C., respectively. Leaf stage was typically 4-6 for A. palmeri, 3-4 for S. viridis, and 4 for S. nigrum and C. quinoa. Each treatment contained five 80 cm^2 pots, each containing about 4 plants of one of the tested weed species. Each pot was sprayed with 0.8 ml of either: • 1. the exemplary extract sample A-1b, in which plant source A powder was mixed with solution 1b for 1.5 hours before filtration, or • 2. 1 gram/liter synthetic Rhein molecule dissolved in 2% MIPA, 2% DASH and 0.25% Genapol solution, which is equivalent to 1000 g/ha. Herbicidal activity was assessed and scored 13 days after application, as described hereinabove.

With O=C(O)c1cc(O)c2c(c1)C(=O)c1cccc(O)c1C2=O [Synthetic Rhein, Rhein] the “Score (Solanum nigrum)” value [1] was 100, the “Score (Setaria viridis)” value [2] was 97 and the “Score (Amaranthus palmeri)” value [3] was 100. The “Score (Chenopodium quinoa)” value [4] was 100.
